US12421253B2 (Mirati Therapeutics, Inc., priority 2020, dated 2025)

Experiments:
KRas^G12D = biological target: T1, KRas^G12D (Homo sapiens, UniProt P01116, G12D); experiment: KRas binding assay (TR-FRET displacement of Cy5 labelled tracer)
T1 construct: […]; biotin (biotinylated); purchased Accelegan Inc
Protocol: (§6) The ability of a compound to bind to KRas was measured using a TR-FRET displacement assay. […] After a 60-minute incubation at room temperature, the reaction was measured using a BMG LABTECH CLARIO star Plus via TR-FRET. […] The POC values were fit to a 4-parameter IC50 equation and the IC50 value reported.

KRas^G12R = biological target: T2, KRas^G12R (Homo sapiens, UniProt P01116, G12R); experiment: as above
T2 construct: […]; biotin (biotinylated); purchased Accelegan Inc
Protocol: as §6

KRas^G12V = biological target: T3, KRas^G12V (Homo sapiens, UniProt P01116, G12V); experiment: as above
T3 construct: […]; biotin (biotinylated); purchased Accelegan Inc
T3 sequence (P01116 1-169 isoform P01116-2 G12V): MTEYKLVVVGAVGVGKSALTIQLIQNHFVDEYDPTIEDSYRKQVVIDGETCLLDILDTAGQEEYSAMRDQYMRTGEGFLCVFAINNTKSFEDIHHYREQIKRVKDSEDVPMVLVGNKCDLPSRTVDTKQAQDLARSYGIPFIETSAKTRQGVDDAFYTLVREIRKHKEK
Protocol: as §6

ASPC1 cells, pERK = experiment: Inhibition of KRas phosphorylation of ERK (Cisbio HTRF Advanced pERK assay); type: cell-based; details: Homo sapiens, ASPC1, 3 h, AsPC-1 cells, read-out: Inhibition (HTRF IC50 nM) of KRas-mediated Phosphorylation of ERK, AsPC-1
Summary of the method: (§1)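 Compound effect on ERK phosphorylation is measured after 3 h exposure of cells, seeded the previous day in RPMI with 10% FBS, to ten 3-fold dilutions starting at 10 uM. Lysates are probed by HTRF for pERK, with trametinib at 0.2 uM defining the minimum signal.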

H358 cells, pERK = experiment: as above; type: cell-based; details: Homo sapiens, NCI-H358, 3 hrs, read-out: Inhibition (HTRF IC50 nM) of KRas-mediated Phosphorylation of ERK, H358
Summary of the method: as §1

H460 cells, pERK = experiment: as above; type: cell-based; details: Homo sapiens, NCI-H460, 3 hrs, read-out: Inhibition (HTRF IC50 nM) of KRas-mediated Phosphorylation of ERK, H460
Summary of the method: as §1

H727 cells, pERK = experiment: as above; type: cell-based; details: Homo sapiens, NCI-H727, 3 h, read-out: Inhibition (HTRF IC50 nM) of KRas-mediated Phosphorylation of ERK, H727
Summary of the method: as §1

MKN1 cells, pERK = experiment: as above; type: cell-based; details: Homo sapiens, MKN-1, 3 h, read-out: Inhibition (HTRF IC50 nM) of KRas-mediated Phosphorylation of ERK, MKN1
Summary of the method: as §1

PSN1 cells, pERK = experiment: as above; type: cell-based; details: Homo sapiens, PSN1, 3 h, read-out: Inhibition (HTRF IC50 nM) of KRas-mediated Phosphorylation of ERK, PSN1
Summary of the method: as §1

A549 cells, pERK = experiment: as above; type: cell-based; details: Homo sapiens, 3 hrs, read-out: Inhibition (HTRF IC50 nM) of KRas-mediated Phosphorylation of ERK, A549
Summary of the method: as §1

HCT116 cells, pERK = experiment: as above; type: cell-based; details: Homo sapiens, HCT-116, 3 hrs, read-out: Inhibition (HTRF IC50 nM) of KRas-mediated Phosphorylation of ERK, HCT116
Summary of the method: as §1

[1] = tested on: AsPC-1 (G12D) cells, phospho-ERK; experiment: Inhibition of KRas-mediated phosphorylation of ERK (phospho-ERK/GAPDH antibody detection, LI-COR); type: cell-based; details: Homo sapiens, ASPC1, 3 hours
Protocol: (§2) AsPC-1 (G12D, ATCC CRL-1682), A549 (G12S, ATCC CCL-185), HCT116 (G13D, ATCC CCL-247) cells were grown in DMEM medium supplemented with 10% fetal bovine serum and Penicillin/Streptomycin. NCI-H358 (G12C, ATCC CRL-5807), NCI-H460 (Q61H, ATCC HTB-117), NCI-H727 (G12V, ATCC CRL-5815), MKN1 (WTdep, JCRB JCRB0252), PSN-1 (G12R, ATCC CRM-CRL-3211) cells were grown in RPMI medium supplemented with 10% fetal bovine serum, 10 mM HEPES, 10 mM Sodium Pyruvate, and Penicillin/Streptomycin. Cells were plated in black well clear bottom tissue culture treated 96 well plates (Corning, 3904) at a density of 20,000 cells/well and allowed to attach for 12-14 hours. Diluted compounds were then added in a final concentration of 0.5% DMSO. After 3 hours, 50 μL of 4.0% formaldehyde was added and the plates incubated at room temperature for 20 minutes. The plates were then dumped and permeabilized with 150 μL of ice cold 100% methanol for 10 minutes. Non-specific antibody binding to the plates was blocked using 100 μL Odyssey blocking buffer (LI-COR Biosciences, 927-60010) for 1 hour at room temperature.
(§3) The amount of phospho-ERK was determined using an antibody specific for the phosphorylated form of ERK and compared to the amount of GAPDH. Primary antibodies used for the detection were added as follows: Phospho-ERK (Cell Signaling CS-9101) diluted 1:500 and GAPDH (Millipore MAB374) diluted 1:5000 in Odyssey blocking buffer+0.05% Tween 20. The plates were incubated overnight at 4 C. The plates were washed 3× with 150 uL PBS+0.1% Tween 20.
(§4) Secondary antibodies used to visualize primary antibodies were added as follows: Goat Anti-Rabbit-800 (LI-COR, 926-32211) and Goat Anti-Mouse-680 (LI-COR, 926-68070) diluted 1:800 both in Odyssey blocking buffer+0.05% Tween 20 and were incubated for 1 hour at room temperature. The plates were washed 3× with 150 uL PBS+[…]. Plates were imaged dry on a Li—COR Odyssey CLX plate reader.
(§5) The phospho-ERK (Thr202/Tyr204) signal was normalized to the GAPDH signal for each well and percent of DMSO control values were calculated. IC50 values were generated using a 4-parameter fit of the dose response curve.

[2] = tested on: NCI-H460 (Q61H) cells, phospho-ERK; experiment: as above; type: cell-based; details: Homo sapiens, 3 hours
Protocol: as §2, §3, §4, §5

[3] = tested on: NCI-H727 (G12V) cells, phospho-ERK; experiment: as above; type: cell-based; details: Homo sapiens, 3 hours
Protocol: as §2, §3, §4, §5

T2 sequence (P01116 1-169 isoform P01116-2 G12R): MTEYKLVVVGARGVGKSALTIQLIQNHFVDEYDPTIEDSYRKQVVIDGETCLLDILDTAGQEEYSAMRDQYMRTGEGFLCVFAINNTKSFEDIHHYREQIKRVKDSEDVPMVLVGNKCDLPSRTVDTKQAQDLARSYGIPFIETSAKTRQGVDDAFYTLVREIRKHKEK
T1 sequence (P01116 1-169 isoform P01116-2 G12D): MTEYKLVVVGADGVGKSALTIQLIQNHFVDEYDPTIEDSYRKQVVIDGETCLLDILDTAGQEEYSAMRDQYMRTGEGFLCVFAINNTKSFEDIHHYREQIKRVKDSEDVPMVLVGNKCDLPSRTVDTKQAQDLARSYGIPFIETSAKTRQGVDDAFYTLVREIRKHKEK

| SMILES | IC50 (KRas^G12D) [nM] | IC50 (KRas^G12R) [nM] | IC50 (KRas^G12V) [nM] | IC50 (ASPC1 cells, pERK) [nM] | IC50 (H358 cells, pERK) [nM] | IC50 (H460 cells, pERK) [nM] | IC50 (H727 cells, pERK) [nM] | IC50 (MKN1 cells, pERK) [nM] | IC50 (PSN1 cells, pERK) [nM] | IC50 (A549 cells, pERK) [nM] | IC50 (HCT116 cells, pERK) [nM] | IC50 [1] [nM] | IC50 [2] [nM] | IC50 [3] [nM] |
| --- | --- | --- | --- | --- | --- | --- | --- | --- | --- | --- | --- | --- | --- | --- |
| CCc1c(F)ccc2cc(O)cc(N3CCc4c(nc(OC[C@@]56CCCN5C[C@H](F)C6)nc4N4CCCc5nn(C(=O)N(C)C)cc5C4)C3)c12 [Example 194, 5-(7-(8-ethyl-7-fluoro-3-hydroxynaphthalen-1-yl)-2-(((2R,7aS)-2-fluorohexahydro-1H-pyrrolizin-7a-yl)methoxy)-5,6,7,8-tetrahydropyrido[3,4-d]pyrimidin-4-yl)-N,N-dimethyl-5,6,7,8-tetrahydropyrazolo[4,3-c]azepine-2(4H)-carboxamide] | ≤ 2 | ≤ 2 | ≤ 2 | 71 | 63 | 426 | 115 | 100 | ≥ 10000 |  |  |  |  |  |
| CCc1c(F)ccc2cc(O)cc(N3CCc4c(nc(OC[C@@]56CCCN5C[C@H](F)C6)nc4N4CCCn5nc(C(=O)N6CCCC6)cc5C4)C3)c12 [Example 191, (5-(7-(8-ethyl-7-fluoro-3-hydroxynaphthalen-1-yl)-2-(((2R,7aS)-2-fluorotetrahydro-1H-pyrrolizin-7a(5H)-yl)methoxy)-5,6,7,8-tetrahydropyrido[3,4-d]pyrimidin-4-yl)-5,6,7,8-tetrahydro-4H-pyrazolo[1,5-a][1,4]diazepin-2-yl)(pyrrolidin-1-yl)methanone] | ≤ 2 | ≤ 2 | 52 | 3 | 3 | 33 | 3 | 10 | 2960 |  |  |  |  |  |
| O=C1NC(=O)C2(CCCN(c3nc(OC[C@@]45CCCN4C[C@H](F)C5)nc4c3CCN(c3cc(O)cc5ccc(F)c(Cl)c35)C4)C2)N1 (stereo partly drawn) [Example 69, 7-(7-(8-chloro-7-fluoro-3-hydroxynaphthalen-1-yl)-2-(((2R,7aS)-2-fluorohexahydro-1H-pyrrolizin-7a-yl)methoxy)-5,6,7,8-tetrahydropyrido[3,4-d]pyrimidin-4-yl)-1,3,7-triazaspiro[4.5]decane-2,4-dione] | ≤ 2 | ≤ 2 | 52 | 122 |  | 68 | 194 | 41 | 578 | 59 | 164 |  |  |  |
| CCc1c(F)ccc2cc(O)cc(N3CCc4c(nc(OC[C@@]56CCCN5C[C@H](F)C6)nc4N4CCCn5nc(C(=O)NC(C)C)cc5C4)C3)c12 [Example 188, 5-(7-(8-ethyl-7-fluoro-3-hydroxynaphthalen-1-yl)-2-(((2R,7aS)-2-fluorotetrahydro-1H-pyrrolizin-7a(5H)-yl)methoxy)-5,6,7,8-tetrahydropyrido[3,4-d]pyrimidin-4-yl)-N-isopropyl-5,6,7,8-tetrahydro-4H-pyrazolo[1,5-a][1,4]diazepine-2-carboxamide] | ≤ 2 | ≤ 2 | ≤ 2 | 2 | 3 | 49 | 4 | 7 | 2880 |  |  |  |  |  |
| CCc1c(F)ccc2cc(O)cc(N3CCc4c(nc(OC[C@@]56CCCN5C[C@H](F)C6)nc4N4CC5C(=O)NC(=O)C5C4)C3)c12 (stereo partly drawn) [Example 24, 5-(7-(8-ethyl-7-fluoro-3-hydroxynaphthalen-1-yl)-2-(((2R,7aS)-2-fluorohexahydro-1H-pyrrolizin-7a-yl)methoxy)-5,6,7,8-tetrahydropyrido[3,4-d]pyrimidin-4-yl)tetrahydropyrrolo[3,4-c]pyrrole-1,3(2H,3aH)-dione] | ≤ 2 | ≤ 2 | ≤ 2 | 10 |  | 59 | 35 | 6 | 2950 | 17 | 148 | 25 | 65 | 134 |
| O=C1NC(=O)C2CN(c3nc(OC[C@@]45CCCN4C[C@H](F)C5)nc4c3CCN(c3cc(O)cc5ccc(F)c(Cl)c35)C4)CC12 (stereo partly drawn) [Example 232, 5-(7-(8-chloro-7-fluoro-3-hydroxynaphthalen-1-yl)-2-(((2R,7aS)-2-fluorohexahydro-1H-pyrrolizin-7a-yl)methoxy)-5,6,7,8-tetrahydropyrido[3,4-d]pyrimidin-4-yl)tetrahydropyrrolo[3,4-c]pyrrole-1,3(2H,3aH)-dione] | ≤ 2 | ≤ 2 | ≤ 2 | 125 |  | 331 | 114 | 34 | 2770 | 98 | 709 |  |  |  |
| CN(C)C(=O)c1cc2n(n1)CCCN(c1nc(OC[C@@]34CCCN3C[C@H](F)C4)nc3c1CCN(c1cc(O)cc4ccc(F)c(Cl)c14)C3)C2 [Example 229, 5-(7-(8-chloro-7-fluoro-3-hydroxynaphthalen-1-yl)-2-(((2R,7aS)-2-fluorohexahydro-1H-pyrrolizin-7a-yl)methoxy)-5,6,7,8-tetrahydropyrido[3,4-d]pyrimidin-4-yl)-N,N-dimethyl-5,6,7,8-tetrahydro-4H-pyrazolo[1,5-a][1,4]diazepine-2-carboxamide] | ≤ 2 | ≤ 2 | ≤ 2 | 220 |  | 1400 | 260 | 317 | 2140 | 705 | 1980 |  |  |  |
| CCc1c(F)ccc2cc(O)cc(N3CCc4c(nc(OCC5(CN(C)C)CC5)nc4N4CCCn5nc(C(=O)N(C)C)cc5C4)C3)c12 [Example 203, 5-(2-((1-((dimethylamino)methyl)cyclopropyl)methoxy)-7-(8-ethyl-7-fluoro-3-hydroxynaphthalen-1-yl)-5,6,7,8-tetrahydropyrido[3,4-d]pyrimidin-4-yl)-N,N-dimethyl-5,6,7,8-tetrahydro-4H-pyrazolo[1,5-a][1,4]diazepine-2-carboxamide] | ≤ 2 | 3 | 52 | 132 |  | 1100 | 283 | 181 | ≥ 10000 | 524 | 1700 |  |  |  |
